Measurements taken from publication PMC11500415, “Chemical inhibition of stomatal differentiation by perturbation of the master-regulatory bHLH heterodimer via an ACT-Like domain” (Nature Communications, 2024).
Several values for one entry are separate records, joined by “and”; a condition that tells them apart may be missing. Equal entries are not always repeated.

Columns and labels:
Format in all cases: cell-based
[1] = target: T1, SCRM-FAMA heterodimer (Arabidopsis thaliana, UniProt Q56YJ8); test: Y2H growth and quantitative α-galactosidase assay; conditions: yeast FAMA∆N+SCRM, media -WLH, replicates #1-#3
T1 construct: truncated SPCH and FAMA proteins lacking their N-terminal domain were used in yeast; expressed in transfected cells; host or cells: yeast strain AH109
T1 sequence (Q56YJ8 190-414, one chain of several): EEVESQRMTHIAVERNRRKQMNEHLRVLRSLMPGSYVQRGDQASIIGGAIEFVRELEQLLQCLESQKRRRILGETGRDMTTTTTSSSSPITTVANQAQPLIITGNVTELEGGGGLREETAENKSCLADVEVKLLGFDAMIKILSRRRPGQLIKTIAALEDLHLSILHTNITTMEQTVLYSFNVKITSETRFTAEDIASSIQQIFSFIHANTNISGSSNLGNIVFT
Method: (§1) Y2H assays were performed using the Matchmaker^TM Two-Hybrid System (Clontech). Bait (pGBKT7) and prey (pGADT7) constructs were co-transformed into the yeast strain AH109 using Frozen-EZ Yeast Transformation II Kit (Zymo Research, T2001). The resulting transformants were spotted on SD ( − Leu, −Trp) and SD ( − Trp, −Leu, −His) selection media containing different concentrations of 3-amino-1,2,4-triazole (Sigma, A8056) as previously reported. Quantitative α-galactosidase assay was also performed according to manufactural instruction (Clontech). Briefly, the transformants were incubated in 2 ml SD medium with 0, 10, 50 100 μM Stomidazolone (3) or SIM3* (7) with rotary shake (220 rpm) at 30 °C overnight. The cultured media containing yeast were transferred to microtubes and centrifuged to obtain the supernatant. The colorimetric assay was performed by incubating 8 μL of supernatant with 24 μL Assay Buffer that contains 0.5 M sodium acetate (pH 4.5) (Nakalai tesque, 31137-25): 100 mM p-nitrophenyl α-D-Galactopyranoside Solution (Sigma N0877) = 2:1 (v/v) at 30 °C for 60 min, then terminated by adding 960 μL 1X Stop Solution (0.1 M sodium carbonate, Fujifilm Wako 195-01582). After OD410 was recorded, α-galactosidase units were calculated according to the protocol (Clontech, P3024-1).

[2] = target: T2, SCRM-SPCH heterodimer (Arabidopsis thaliana, UniProt Q700C7); test: Y2H growth and quantitative α-galactosidase assay; conditions: yeast SPCH∆N+SCRM, media -WLH, replicates #1-#3
T2 construct: truncated SPCH and FAMA proteins lacking their N-terminal domain were used in yeast; expressed in transfected cells; host or cells: yeast strain AH109
T2 sequence (Q700C7 98-364 limits assumed): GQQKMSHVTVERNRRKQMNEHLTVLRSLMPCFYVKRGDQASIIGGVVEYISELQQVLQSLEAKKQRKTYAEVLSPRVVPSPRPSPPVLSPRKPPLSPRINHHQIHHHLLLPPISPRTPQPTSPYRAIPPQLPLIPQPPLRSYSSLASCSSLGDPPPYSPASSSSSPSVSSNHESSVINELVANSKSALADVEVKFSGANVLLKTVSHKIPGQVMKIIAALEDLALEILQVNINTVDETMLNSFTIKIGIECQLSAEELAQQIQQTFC
Method: as §1

[3] = target: T3, SCRM-MUTE heterodimer (Arabidopsis thaliana, UniProt Q9M8K6); test: Y2H growth and quantitative α-galactosidase assay; conditions: yeast MUTE+SCRM, media -WLH, replicates #1-#3
T3 construct: expressed in transfected cells; host or cells: yeast strain AH109
T3 sequence (Q9M8K6 1-202): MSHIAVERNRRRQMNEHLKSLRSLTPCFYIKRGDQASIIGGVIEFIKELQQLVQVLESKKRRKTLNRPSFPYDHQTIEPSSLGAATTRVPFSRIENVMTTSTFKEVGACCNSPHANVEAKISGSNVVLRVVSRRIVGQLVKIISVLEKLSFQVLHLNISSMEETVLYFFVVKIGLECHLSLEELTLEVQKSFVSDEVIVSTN
Method: as §1

[4] = target: T4, MUTE+AD (control yeast) (Arabidopsis thaliana, UniProt Q9M8K6); test: Y2H quantitative α-galactosidase assay, control yeast MUTE+AD; conditions: media -WL, replicates #1-#3
T4 construct: expressed in transfected cells; host or cells: yeast strain AH109
T4 sequence (Q9M8K6 1-202): T3 sequence (Q9M8K6 1-202)
Source text: Supplement 41467_2024_53214_MOESM7_ESM.xlsx, sheet "Fig.S5" | column: Meristemoid

[5] = target: T5, DB+SCRM (control yeast) (Arabidopsis thaliana, UniProt Q9LSE2); test: Y2H quantitative α-galactosidase assay, control yeast DB+SCRM; conditions: media -WL, replicates #1-#3
T5 construct: expressed in transfected cells; host or cells: yeast strain AH109
T5 sequence (Q9LSE2 1-494): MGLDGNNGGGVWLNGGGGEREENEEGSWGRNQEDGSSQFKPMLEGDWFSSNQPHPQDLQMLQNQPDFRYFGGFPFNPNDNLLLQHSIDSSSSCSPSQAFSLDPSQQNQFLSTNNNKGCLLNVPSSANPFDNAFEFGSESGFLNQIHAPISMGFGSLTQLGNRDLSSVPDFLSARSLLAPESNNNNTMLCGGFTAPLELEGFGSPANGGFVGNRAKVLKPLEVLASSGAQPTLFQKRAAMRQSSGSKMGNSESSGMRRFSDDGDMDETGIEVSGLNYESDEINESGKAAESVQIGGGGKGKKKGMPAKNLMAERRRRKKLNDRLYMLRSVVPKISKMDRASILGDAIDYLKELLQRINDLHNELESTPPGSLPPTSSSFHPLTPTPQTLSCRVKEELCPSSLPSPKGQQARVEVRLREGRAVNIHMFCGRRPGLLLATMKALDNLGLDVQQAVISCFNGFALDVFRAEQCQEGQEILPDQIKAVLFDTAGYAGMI

Cc1nc(-c2ccccc2)c(NS(=O)(=O)c2ccccc2)o1 [SIM3*]
a-galactosidase ([1]; 10 µM): 9.596 milliunits /(ml x cell) and 8.612 milliunits /(ml x cell) and 10.2528 milliunits /(ml x cell)
a-galactosidase ([1]; 50 µM): 8.883 milliunits /(ml x cell) and 8.135 milliunits /(ml x cell) and 9.605 milliunits /(ml x cell)
a-galactosidase ([1]; 100 µM): 8.9516 milliunits /(ml x cell) and 9.181 milliunits /(ml x cell) and 8.943 milliunits /(ml x cell)
a-galactosidase ([2]; 10 µM): 4.934 milliunits /(ml x cell) and 5.0596 milliunits /(ml x cell) and 4.687 milliunits /(ml x cell)
a-galactosidase ([2]; 50 µM): 4.693 milliunits /(ml x cell) and 5.268 milliunits /(ml x cell) and 5.059 milliunits /(ml x cell)
a-galactosidase ([2]; 100 µM): 6.071 milliunits /(ml x cell) and 5.524 milliunits /(ml x cell) and 5.145 milliunits /(ml x cell)
a-galactosidase ([3]; 10 µM): 6.318 milliunits /(ml x cell) and 6.221 milliunits /(ml x cell) and 6.24 milliunits /(ml x cell)
a-galactosidase ([3]; 50 µM): 7.176 milliunits /(ml x cell) and 6.898 milliunits /(ml x cell) and 6.187 milliunits /(ml x cell)
a-galactosidase ([3]; 100 µM): 6.801 milliunits /(ml x cell) and 6.285 milliunits /(ml x cell) and 6.027 milliunits /(ml x cell)
a-galactosidase ([4]; 10 µM): 0.05913 milliunits /(ml x cell) and 0.1128 milliunits /(ml x cell) and 0.06646 milliunits /(ml x cell)
a-galactosidase ([4]; 50 µM): 0.06252 milliunits /(ml x cell) and 0.06546 milliunits /(ml x cell) and 0.1442 milliunits /(ml x cell)
a-galactosidase ([4]; 100 µM): 0.1449 milliunits /(ml x cell) and 0.1698 milliunits /(ml x cell) and 0.1689 milliunits /(ml x cell)
a-galactosidase ([5]; 10 µM): 0.04682 milliunits /(ml x cell) and 0.1024 milliunits /(ml x cell) and 0.1038 milliunits /(ml x cell)
a-galactosidase ([5]; 50 µM): 0.1114 milliunits /(ml x cell) and 0.04747 milliunits /(ml x cell) and 0.1243 milliunits /(ml x cell)
a-galactosidase ([5]; 100 µM): 0.1293 milliunits /(ml x cell) and 0.1919 milliunits /(ml x cell) and 0.06561 milliunits /(ml x cell)
